Data as given in US10869924B2, “PD-L1 antagonist combination treatments” (MERCK PATENT GMBH, priority 2015, dated 2020).

System: MC38 colon carcinoma
Experiment: Subcutaneous MC38 colon carcinoma model, anti-4-1BB and avelumab (Example 3)
Format: in vivo
Conditions: anti-4-1BB 0.1 mg/mL, avelumab 1 mg/mL, 0.2 mL per mouse ip, 3 doses 3 to 4 days apart, C57BL/6 mice
Experimental: Six (6)- to 8-week old female C57BL/6 mice were purchased from the Jackson Laboratories. All animals were housed in a pathogen free vivarium facility at Rinat and experiments were conducted according to the protocols in accordance with the Institutional Animal Care and Use Committee (IACUC) guidelines.
The B16F10 melanoma cell line was purchased from American Type Culture Collection (ATCC). The MC38 colon carcinoma cell line was kindly provided by Dr. Antoni Ribas at University of California, Los Angeles, Calif. Cells were cultured in Dulbecco's Modified Eagle's Medium (DMEM) supplemented with 10% fetal bovine serum (FBS), 2 mM L-glutamine at 37° C. in 5% carbon dioxide (CO2), and IMPACT-tested for pathogens at Research Animal Diagnostic Laboratory (RADIL) (Columbia, Mo.). Pathogen-free cells growing in an exponential growth phase were harvested and used for tumor inoculation.
Therapeutic mouse anti-mouse 4-1BB mAb (mouse immunoglobulin G1 [mIgG1]), derived from the parental clone MAB9371 (R&D Systems), was prepared in-house. Avelumab was provided by Merck Serono. Isotype control mIgG1 (clone: MOPC-21) was purchased from BioXcell. Human IgG1 was prepared in-house. Anti-4-1BB and avelumab were diluted to concentrations of 0.1 mg/mL and 1 mg/mL, respectively, in phosphate buffered saline (PBS) (Life Technologies), and dosed at 0.2 mL per mouse intraperitoneally (ip) for 3 doses 3 to 4 days apart.
C57BL/6 mice were inoculated subcutaneously at the right flank with 0.2×10^6 B16F10 or 0.5×10^6 MC38 cells in 0.1 mL of serum-free DMEM. When tumors reached target size, mice were randomized into treatment groups. Treatment was started on the same day as randomization. Tumor size was measured twice weekly in 2 dimensions using a caliper, and the volume was expressed in cubic millimeters using the formula: V=0.5 L×W^2 where L is the longest diameter of the tumor and W is the diameter perpendicular to L. Body weight was recorded weekly.
Results were expressed as mean±SEM. Statistical analyses were performed using GraphPad Prism 6.0. One-way or 2-way ANOVA was applied to compare the statistical differences among multiple groups relative to the isotype control. P<0.05 was considered as significant difference.
In the MC38 colon carcinoma model, the average starting tumor size was approximately 60 mm^3 (range 41-92 mm^3; n=10 animals per group) (Table 6). At the end of study (Day 23 post tumor implantation), the average tumor volumes of isotype, anti-4-1BB alone, avelumab alone, and anti-4-1BB antibody/avelumab combination groups were 1177±252 mm^3, 1093±183 mm^3, 901±206 mm^3, and 530±190 mm^3, respectively (Table 6). The reduction in tumor size by the combination treatment was significant, compared to the isotype control (p<0.001) and 4-1BB alone groups (p<0.01), but not to the avelumab group (p>0.05) (Table 6).

Avelumab: fully human mAb of the IgG1 isotype that specifically targets and blocks PD-L1
Tumor Measurements of Subcutaneous MC38 Colon Carcinoma, Mean tumor volume (Day 7 post tumor implantation (starting tumor size)): 63 mm^3 | Tumor Measurements of Subcutaneous MC38 Colon Carcinoma, Mean tumor volume (Day 10 post tumor implantation): 127 mm^3 | Tumor Measurements of Subcutaneous MC38 Colon Carcinoma, Mean tumor volume (Day 14 post tumor implantation): 254 mm^3 | Tumor Measurements of Subcutaneous MC38 Colon Carcinoma, Mean tumor volume (Day 16 post tumor implantation): 384 mm^3 | Tumor Measurements of Subcutaneous MC38 Colon Carcinoma, Mean tumor volume (Day 18 post tumor implantation): 523 mm^3 | Tumor Measurements of Subcutaneous MC38 Colon Carcinoma, Mean tumor volume (Day 21 post tumor implantation): 714 mm^3 | Tumor Measurements of Subcutaneous MC38 Colon Carcinoma, Mean tumor volume (Day 23 post tumor implantation (end of study)): 901 mm^3 | Tumor Measurements of Subcutaneous MC38 Colon Carcinoma, Mean tumor volume (Day 23 post tumor implantation (end of study), listed as avelumab): 901±206 mm^3
